Measured values: patent US6962931B2, “Self-emulsifying formulations of cholesteryl ester transfer protein inhibitors” (Pfizer Inc., priority 2001, dated 2005)

Test: Emulsion from oil solution plus equal volume of water: particle size and stability
Assay type: physicochemical
Experimental: An emulsion was prepared by combining 1 volume of oil solution with an equal volume of de-ionized water. […] The emulsion is then stirred continuously to maintain homogeneity.
An emulsion was prepared by combining 1 volume of oil solution with an equal volume of de-ionized water. This mixture was stirred for 10 minutes and then vortex mixed for 2 minutes. […] It was stirred continuously to maintain homogeneity.
An emulsion was prepared by combining combining 1 volume of oil solution with an equal volume of de-ionized water. This mixture was stirred for 10 minutes and then vortex mixed for 2 minutes. […] It was stirred continuously to maintain homogeneity.

## CCOC(=O)N1c2ccc(C(F)(F)F)cc2[C@@H](N(Cc2cc(C(F)(F)F)cc(C(F)(F)F)c2)C(=O)OC)C[C@H]1CC [Compound A, [2R,4S] 4-[(3,5-bis-trifluoromethyl-benzyl)-methoxycarbonyl-amino]-2-ethyl-6-trifluoromethyl-3,4-dihydro-2H-quinoline-1-carboxylic acid ethyl ester]
Example 17 oil after storage for 8 days or emulsion after 24 hr
  chemical degradation or crystallization: No chemical degradation based on HPLC analysis or crystallization based on microscopic examination was detected
Example 17 oil solution (Miglyol 812/propylene carbonate/Cremophor EL, 115 mg/g) plus equal volume water
  average particle size of emulsion: less than 10 microns
Example 18 oil after storage for 8 days or emulsion after 24 hr
  chemical degradation or crystallization: No chemical degradation based on HPLC analysis or crystallization based on microscopic examination was detected
Example 18 oil solution (olive oil/Cremophor EL, 13 mg/g) plus equal volume water
  average particle size of emulsion: less than 10 microns
